Activity calls are given as the source filed them. No cut-off for these calls is given here.
Key:
[1] = test system: SK-OV-3; assay: Induction of cell cycle arrest in human SK-OV-3 cells assessed as increase in G2/M phase cells at 40 nM incubated for 24 hrs by PI staining based flow cytometric analysis (reference value: 24.6 +/- 2.0%); type: functional
[2] = test system: SK-OV-3; assay: Induction of apoptosis in human SK-OV-3 cells assessed as upregulation of Bax expression at 100 nM incubated for 24 hrs by Western blotting analysis; type: functional, cell-based
[3] = test system: SK-OV-3; assay: Induction of apoptosis in human SK-OV-3 cells assessed as increase in apoptotic cells incubated for 48 hrs by IncuCyte live-cell imaging analysis; type: functional, cell-based; conditions: dose 2.5-40 nM
[4] = test system: MCF7; assay: Induction of apoptosis in human MCF7 cells assessed as downregulation of cleaved-PARP expression at 100 nM incubated for 24 hrs by Western blotting analysis; type: functional, cell-based
[5] = test system: MCF7; assay: Inhibition of cell migration in human MCF7 cells assessed as ratio of migrated cells at 50 nM incubated for 24 hrs by crystal violet staining based inverted microscopic analysis (reference value: 100%); type: functional; set-up: scale not given: the % may be the effect or the level left
[6] = Toxicity in female BALB/c nude mouse xenografted with human SK-OV-3 cells assessed as animal death at 15 mg/kg, administered via tail vein for 5 days and measured daily; type: organism-based; conditions: in vivo, iv, 120 h, time 5 day
[7] = test system: SK-OV-3; assay: Induction of cell cycle arrest in human SK-OV-3 cells assessed as increase in G2/M phase cells at 10 nM incubated for 24 hrs PI staining based flow cytometric analysis (reference value: 24.6 +/- 2.0%); type: functional
[8] = test system: MCF7; assay: Induction of apoptosis in human MCF7 cells assessed as upregulation of cleaved-caspase-3 expression incubated for 24 hrs by Western blotting analysis; type: functional, cell-based
[9] = test system: MCF7; assay: Inhibition of colony formation in human MCF7 cells at 50 nM incubated for 72 hrs by crystal violet staining based assay relative to control; type: functional
[10] = test system: SK-OV-3; assay: Inhibition of cell migration in human SK-OV-3 cells assessed as ratio of migrated cells at 5 nM incubated for 24 hrs by Transwell assay (reference value: 100 %); type: functional; set-up: scale not given: the % may be the effect or the level left
[11] = test system: SK-OV-3; assay: Inhibition of cell migration in human SK-OV-3 cells assessed as wound closure ratio at 25 nM incubated for 24 hrs by wound healing assay (reference value: 100%); type: functional; set-up: scale not given: the % may be the effect or the level left
[12] = test system: MCF7; assay: Inhibition of colony formation in human MCF7 cells incubated for 72 hrs by crystal violet staining based assay; type: functional, cell-based; conditions: dose 3.125-50 nM
[13] = test system: SK-OV-3; assay: Induction of apoptosis in human SK-OV-3 cells assessed as upregulation of Bcl-2 expression at 100 nM incubated for 24 hrs by Western blotting analysis; type: functional, cell-based
[14] = test system: SK-OV-3; assay: Inhibition of cell migration in human SK-OV-3 cells assessed as ratio of migrated cells at 2.5 nM incubated for 24 hrs by Transwell assay (reference value: 100 %); type: functional; set-up: scale not given: the % may be the effect or the level left
[15] = test system: A549; assay: Induction of cell cycle arrest in human A549 cells assessed as accumulation of cells at G2/M phase at 40 nM incubated for 24 hrs by PI staining based flow cytometric analysis relative to control; type: functional
[16] = test system: SK-OV-3; assay: Induction of cell cycle arrest in human SK-OV-3 cells assessed as downregulation of Cdc-2 expression at 100 nM incubated for 24 hrs by Western blotting analysis; type: functional, cell-based
[17] = test system: SK-OV-3; assay: Antitumor activity against human SK-OV-3 cells xenografted in female BALB/c nude mouse assessed as tumor growth inhibition at 5 mg/kg, […] via tail vein once every 2 to 3 days; type: functional; conditions: time 2-3 day, read-out: TGI
[18] = Toxicity in female BALB/c nude mouse xenografted with human SK-OV-3 cells assessed as drug tolerance reduction in food intake at 30 mg/kg, administered via tail vein for 5 days and measured daily; type: organism-based; conditions: in vivo, iv, 120 h, time 5 day
[19] = Toxicity in female BALB/c nude mouse xenografted with human SK-OV-3 cells assessed as drug tolerance by measuring loose stools at 30 mg/kg, administered via tail vein for 5 days and measured daily; type: organism-based, Feces; conditions: in vivo, iv, 120 h, time 5 day
[20] = test system: SK-OV-3; assay: Induction of apoptosis in human SK-OV-3 cells assessed as downregulation of Bcl-2 expression incubated for 24 hrs by Western blotting analysis; type: functional, cell-based
[21] = test system: SK-OV-3; assay: Induction of apoptosis in human SK-OV-3 cells assessed as upregulation of cleaved-caspase-3 expression incubated for 24 hrs by Western blotting analysis; type: functional, cell-based; conditions: dose 25-100 nM
[22] = test system: MCF7; assay: Inhibition of cell migration in human MCF7 cells assessed as area of migrated cells at 50 nM incubated for 24 hrs by crystal violet staining based inverted microscopic analysis (reference value: 18.5 +/- 0.3 mm^3); type: functional
[23] = test system: SK-OV-3; assay: Induction of cell cycle arrest in human SK-OV-3 cells assessed as upregulation of Cyclin-B1 expression at 25 to 50 nM incubated for 24 hrs by Western blotting analysis; type: functional, cell-based; conditions: dose 25-50 nM
[24] = test system: MCF7; assay: Inhibition of cell migration in human MCF7 cells assessed as wound closure at 20 nM incubated for 24 hrs by wound healing assay (reference value: 44.5 +/- 8.8%); type: functional; set-up: scale not given: the % may be the effect or the level left
[25] = test system: SK-OV-3; assay: Inhibition of cell migration in human SK-OV-3 cells assessed as reduction in wound closure at 12.5 nM incubated for 24 hrs by wound healing assay (reference value: 21.8 +/- 7.6%); type: functional; conditions: SK-OV-3, 24 h, values are per cent of control
[26] = test system: MCF7; assay: Induction of apoptosis in human MCF7 cells assessed as increase in apoptotic cells at 6.25 to 100 nM incubated for 24 hrs by IncuCyte live-cell imaging analysis; type: functional, cell-based; conditions: dose 6.25-100 nM
[27] = test system: MCF7; assay: Inhibition of cell migration in human MCF7 cells assessed as wound closure at 5 nM incubated for 24 hrs by wound healing assay (reference value: 44.5 +/- 8.8%); type: functional; set-up: scale not given: the % may be the effect or the level left
[28] = test system: SK-OV-3; assay: Antitumor activity against human SK-OV-3 cells xenografted xenografted in female BALB/c nude mouse assessed as decrease in Ki-67 expression level in tumor at 10 mg/kg, […] via tail vein once every 2 to 3 days by immunohistochemistry analysis; type: functional, organism-based; conditions: time 2-3 day
[29] = test system: SK-OV-3; assay: Inhibition of cell migration in human SK-OV-3 cells assessed as area of migrated cells at 2.5 nM incubated for 24 hrs by crystal violet staining based inverted microscopic analysis (reference value: 30.1 +/- 1.3 mm^3); type: functional
[30] = test system: MCF7; assay: Inhibition of cell migration in human MCF7 cells assessed as area of migrated cells at 25 nM incubated for 24 hrs by crystal violet staining based inverted microscopic analysis (reference value: 18.5 +/- 0.3 mm^3); type: functional
[31] = test system: MCF7; assay: Inhibition of cell migration in human MCF7 cells assessed as ratio of migrated cells at 3.125 nM incubated for 24 hrs by crystal violet staining based inverted microscopic analysis (reference value: 100%); type: functional; set-up: scale not given: the % may be the effect or the level left
[32] = test system: SK-OV-3; assay: Inhibition of cell migration in human SK-OV-3 cells assessed as wound closure ratio at 50 nM incubated for 24 hrs by wound healing assay (reference value: 100%); type: functional; set-up: scale not given: the % may be the effect or the level left
[33] = test system: MCF7; assay: Inhibition of cell migration in human MCF7 cells assessed as wound closure at 10 nM incubated for 24 hrs by wound healing assay (reference value: 44.5 +/- 8.8%); type: functional; set-up: scale not given: the % may be the effect or the level left
[34] = Toxicity in female BALB/c nude mouse xenografted with human SK-OV-3 cells assessed as drug tolerance by measuring lethargy at 30 mg/kg, administered via tail vein for 5 days and measured daily; type: organism-based; conditions: in vivo, iv, 120 h, time 5 day
[35] = test system: MCF7; assay: Inhibition of cell migration in human MCF7 cells assessed as ratio of migrated cells at 6.25 nM incubated for 24 hrs by crystal violet staining based inverted microscopic analysis (reference value: 100%); type: functional; set-up: scale not given: the % may be the effect or the level left

For `CNc1nc(N2CCCc3cc(OC)ccc32)c2cc(F)ccc2n1`, the Activity [1] was 94.5%, the Activity [2] was “Active” and the Activity [3] was “Dose-dependent-effect”. For the same compound, the Activity [4] was “inactive”, the Activity [5] was 11.7% and the Activity [6] was “Non-toxic”. The Activity [7] was 64.5%, the Activity [8] was “Dose-dependent-effect” and the inhibition at 0.05 µM [9] was 42.2%. The Activity [10] was 48.8%, the Activity [11] was 51.4% and the inhibition [12] was “Dose-dependent-effect”. The Activity [13] was “inactive”, the Activity [14] was 62.9% and the Activity [15] was 88.8%. The Activity [16] was “inactive”, the inhibition in vivo at 5 mg/kg [17] was 34.1% and the Activity [18] was “Toxic”. The Activity [19] was “Toxic”, the Activity [20] was “Active” and the Activity [21] was “Dose-dependent-effect”. For the same compound, the Activity [22] was 2.2 mm3, the Activity [23] was “inactive” and the Activity [24] was 32.2%. For the same compound, the response, % of control at 0.0125 µM [25] was 14.3%, the Activity [26] was “Active” and the Activity [27] was 43.3%. For the same compound, the Activity [28] was “Active”, the Activity [29] was 18.9 mm3 and the Activity [30] was 2.4 mm3. It also gave an Activity [31] of 94.5%, an Activity [32] of 22.7% and an Activity [33] of 46.5%. The Activity [34] was “Toxic” and the Activity [35] was 88.6%.

Reference: ChEMBL document CHEMBL6074686 (Eur J Med Chem, 2025)
